In brackets after ≈: the same amount, converted by molar mass.
Experiments:
[1] = tested on: Staphylococcus aureus; test: Antibacterial activity against Staphylococcus aureus by agar well diffusion method; format: functional
[2] = tested on: Escherichia coli; test: Antibacterial activity against Escherichia coli by agar well diffusion method; format: functional

Compound | MIC [1] [µM] | MIC [2] [µM]
COc1cc(Cc2cnc(N)nc2N)cc(OC)c1OCc1ccc([N+](=O)[O-])cc1 | 32.3 (≈ 13.3 µg/mL) | 39 (≈ 16 µg/mL)
COc1cc(Cc2cnc(N)nc2N)cc(OC)c1OCC(=O)c1ccc([N+](=O)[O-])cc1 | 72.9 (≈ 32 µg/mL) | 72.9 (≈ 32 µg/mL)
COc1cc(Cc2cnc(N)nc2/N=C/c2ccc(Cl)cc2)cc(OC)c1O | 535 (≈ 214 µg/mL) | 535 (≈ 214 µg/mL)
COc1cc(Cc2cnc(N)nc2N)cc(OC)c1OCC(=O)c1ccc(Cl)cc1 | 78.4 (≈ 33.6 µg/mL) | 78.4 (≈ 33.6 µg/mL)
COc1cc(Cc2cnc(N)nc2N)cc(OC)c1OCC(=O)c1ccccc1 | 81.2 (≈ 32 µg/mL) | 81.2 (≈ 32 µg/mL)
COc1cc(Cc2cnc(N)nc2/N=C/c2cccc(O)c2)cc(OC)c1O | 672 (≈ 256 µg/mL) | 336 (≈ 128 µg/mL)
COc1cc(Cc2cnc(N)nc2/N=C/c2ccc(O)cc2)cc(OC)c1O | 672 (≈ 256 µg/mL) | 672 (≈ 256 µg/mL)
COc1cc(Cc2cnc(N)nc2N)cc(OC)c1OCC(=O)c1ccc(C)cc1 | 37.7 (≈ 15.4 µg/mL) | 15.5 (≈ 6.33 µg/mL)

Now those with a lower MIC [1], led by results:

MIC [1] [µM] | MIC [2] [µM] | Compound
18.2 (≈ 6.67 µg/mL) | 18.2 (≈ 6.67 µg/mL) | COc1cc(Cc2cnc(N)nc2N)cc(OC)c1OCc1ccccc1
18.7 (≈ 7.94 µg/mL) | 18.7 (≈ 7.94 µg/mL) | COc1ccc(C(=O)COc2c(OC)cc(Cc3cnc(N)nc3N)cc2OC)cc1
10 (≈ 3.8 µg/mL) | 5 (≈ 1.9 µg/mL) | COc1cc(Cc2cnc(N)nc2N)cc(OC)c1OCc1ccc(C)cc1
20 (≈ 8.02 µg/mL) | 8.3 (≈ 3.33 µg/mL) | COc1cc(Cc2cnc(N)nc2N)cc(OC)c1OCc1ccc(Cl)cc1
5 (≈ 1.98 µg/mL) | 4 (≈ 1.59 µg/mL) | COc1ccc(COc2c(OC)cc(Cc3cnc(N)nc3N)cc2OC)cc1
24.1 (≈ 6.66 µg/mL) | 48.2 (≈ 13.3 µg/mL) | COc1cc(Cc2cnc(N)nc2N)cc(OC)c1O [4-HYDROXYTRIMETHOPRIM]
22.7 (≈ 6.59 µg/mL) | 55.1 (≈ 16 µg/mL) | COc1cc(Cc2cnc(N)nc2N)cc(OC)c1OC [TRIMETHOPRIM]

— ChEMBL document CHEMBL3867489, “Design, synthesis, antibacterial activity and docking study of some new trimethoprim derivatives” (2016)
